Legend:
[1] = test system: fescue; test: Field study on fescue suppression; type: in vivo; conditions: one week after spraying; 0.2% ammonium pelargonate alone; 15 gpa
Source text: A field study was made on fescue suppression (fescue thatch, 9-10 in. height, blade length 10-16 in.) using a 0.2% by weight solution of ammonium pelargonate alone, glyphosate ammonium salt alone (ROUNDUP DF®) at application rates of both 0.21 lb. active ingredient/acre (ai/A) and 0.42 lb. ai/A and a combination of 0.2% ammonium pelargonate with the same rates of ROUNDUP DF. The spray rate was 15 gal./acre (gpa) in all cases. One week after spraying, the following results were obtained: […]

[2] = test system: weeds and grass; test: Time to visual phytotoxic effect after application to weeds (general statement); type: in vivo; conditions: without ammonium pelargonate; 'or longer'
Source text: As an example, weed and grass necrosis may approach 100% within 24 hrs. with glyphosate in combination with ammonium pelargonate, compared to 3-4 days or longer without the ammonium pelargonate.
Unwanted vegetation may be killed by applying to the locus of the vegetation the herbicidal composition of the invention. The herbicidal composition of the invention may be contacted with the unwanted vegetation by spraying or otherwise distributing the composition onto the foliage in accordance with the manufacturers' directions of the post-emergent herbicide [to which has been added the compound of formula (I)]. […] Most importantly, the invention dramatically reduces the kill time. Leaves of vegetation sprayed with herbicidal compositions of the invention usually start to shrivel or turn brown within hours of a single application. Necrosis is evident, usually in 24 hours. Typically unwanted vegetation is dead in less than 24 hours compared to 3 to 4 days when the post-emergent is solely used. Since use of the compound of formula (I) decreases the amount of post-emergent herbicide required, the invention dramatically reduces costs.

Compound | necrosis [1] [%] | time until weed and grass necrosis may approach 100% [2] [days]
CCCCCCCCC(=O)O.N [Ammonium Pelargonate, ammonium pelargonate] | 0 | 
O=C(O)CNCP(=O)(O)O [glyphosate] |  | 3 to 4

Reference: patent US6503869B1, “Enhanced post-emergent herbicidal compositions containing ammonium salts and methods of using the same” (Falcon Lab LLC, priority 2000, dated 2003)
